Calls of active or inactive are those of the source.
Legend:
Cytochrome P450 1A2 = biological target: T1, Cytochrome P450 1A2 (Homo sapiens, UniProt P05177);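 further: PubChem cytochrome P450 panel assay, CYP1A2 panel member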
T1 sequence (P05177 whole entry): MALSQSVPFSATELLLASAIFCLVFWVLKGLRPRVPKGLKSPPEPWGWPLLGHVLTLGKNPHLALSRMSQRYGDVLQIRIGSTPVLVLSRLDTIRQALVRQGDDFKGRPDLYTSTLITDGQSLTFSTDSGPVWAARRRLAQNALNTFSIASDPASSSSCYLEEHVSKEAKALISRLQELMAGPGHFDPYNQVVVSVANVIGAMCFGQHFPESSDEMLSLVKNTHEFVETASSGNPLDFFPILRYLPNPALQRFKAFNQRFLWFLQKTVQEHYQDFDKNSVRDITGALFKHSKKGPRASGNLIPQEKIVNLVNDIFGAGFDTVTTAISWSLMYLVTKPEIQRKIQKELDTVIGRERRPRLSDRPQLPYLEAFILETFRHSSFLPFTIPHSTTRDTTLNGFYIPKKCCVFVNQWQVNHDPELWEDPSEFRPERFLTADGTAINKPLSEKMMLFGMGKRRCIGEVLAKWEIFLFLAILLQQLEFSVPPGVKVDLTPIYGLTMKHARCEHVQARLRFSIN

Vero [1] = experiment: cells; assay type: functional, cell-based; conditions: Chlorocebus sabaeus
[2] = biological target: T2, Corticotropin-releasing factor receptor 2/Corticotropin-releasing factor-binding protein (Homo sapiens, UniProt P24387+Q13324); experiment: activators of CRF receptor 2 with binding protein – uHTS hits, confirmation (AID 602473); assay type: functional; conditions: read-out: EC50_Mean
T2 sequence (Q13324 whole entry): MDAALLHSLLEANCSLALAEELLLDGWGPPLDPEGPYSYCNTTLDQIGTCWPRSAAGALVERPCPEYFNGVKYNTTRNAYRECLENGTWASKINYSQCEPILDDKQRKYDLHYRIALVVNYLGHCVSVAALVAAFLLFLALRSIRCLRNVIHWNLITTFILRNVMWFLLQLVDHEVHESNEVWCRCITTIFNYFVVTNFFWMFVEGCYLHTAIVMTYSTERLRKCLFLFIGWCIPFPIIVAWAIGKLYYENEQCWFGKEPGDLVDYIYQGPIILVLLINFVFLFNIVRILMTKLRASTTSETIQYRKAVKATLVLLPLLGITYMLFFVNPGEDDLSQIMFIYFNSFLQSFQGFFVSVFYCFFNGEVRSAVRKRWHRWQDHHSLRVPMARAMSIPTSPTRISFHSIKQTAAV
T2 sequence (P24387 whole entry): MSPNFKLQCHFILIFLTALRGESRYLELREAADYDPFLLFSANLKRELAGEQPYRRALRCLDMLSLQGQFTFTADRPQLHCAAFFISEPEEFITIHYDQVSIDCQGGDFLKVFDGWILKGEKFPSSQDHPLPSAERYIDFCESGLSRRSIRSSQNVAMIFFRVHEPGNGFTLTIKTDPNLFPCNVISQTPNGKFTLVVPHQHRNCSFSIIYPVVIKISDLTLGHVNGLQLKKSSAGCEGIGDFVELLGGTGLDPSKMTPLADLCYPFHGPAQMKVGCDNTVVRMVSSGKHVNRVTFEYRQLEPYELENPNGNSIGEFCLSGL

Vero [3] = experiment: cells; assay type: functional; conditions: Chlorocebus sabaeus
cells [4] = experiment: cells
[5] = viability of uninfected HEp-2 cells – cell-based, HTS, cytotoxicity control for RSV inhibitor project, dose response (AID 2410); assay type: functional; conditions: human respiratory syncytial virus
[6] = HEK-293T cell viability reduction – luminescence, B-cell screen hits, cytotoxicity control for BCR NF-kB inhibitor project, dose response (AID 489021); assay type: functional, cell-based;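 further: HEK-293T cells carrying an NF-kB luciferase reporter; cells exposed to compound for about 14 hours before viability readout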
Prothrombin = Prothrombin (Homo sapiens, UniProt P00734); experiment: Thrombin 1536 HTS Dose Response Confirmation. [Related pubchem assays: 1046 (Thrombin 1536 HTS; hits were confirmed in this assay)]; assay type: functional
[7] = biological target: Ras and Rab interactor 1/Tyrosine-protein kinase ABL1 (Homo sapiens, UniProt P00519+Q13671); assay type: functional;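 further: biochemical TR-FRET dose-response test measuring inhibition of binding between Rin1 and Abl proteins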
Chain of Ras and Rab interactor 1/Tyrosine-protein kinase ABL1 (P00519 whole entry): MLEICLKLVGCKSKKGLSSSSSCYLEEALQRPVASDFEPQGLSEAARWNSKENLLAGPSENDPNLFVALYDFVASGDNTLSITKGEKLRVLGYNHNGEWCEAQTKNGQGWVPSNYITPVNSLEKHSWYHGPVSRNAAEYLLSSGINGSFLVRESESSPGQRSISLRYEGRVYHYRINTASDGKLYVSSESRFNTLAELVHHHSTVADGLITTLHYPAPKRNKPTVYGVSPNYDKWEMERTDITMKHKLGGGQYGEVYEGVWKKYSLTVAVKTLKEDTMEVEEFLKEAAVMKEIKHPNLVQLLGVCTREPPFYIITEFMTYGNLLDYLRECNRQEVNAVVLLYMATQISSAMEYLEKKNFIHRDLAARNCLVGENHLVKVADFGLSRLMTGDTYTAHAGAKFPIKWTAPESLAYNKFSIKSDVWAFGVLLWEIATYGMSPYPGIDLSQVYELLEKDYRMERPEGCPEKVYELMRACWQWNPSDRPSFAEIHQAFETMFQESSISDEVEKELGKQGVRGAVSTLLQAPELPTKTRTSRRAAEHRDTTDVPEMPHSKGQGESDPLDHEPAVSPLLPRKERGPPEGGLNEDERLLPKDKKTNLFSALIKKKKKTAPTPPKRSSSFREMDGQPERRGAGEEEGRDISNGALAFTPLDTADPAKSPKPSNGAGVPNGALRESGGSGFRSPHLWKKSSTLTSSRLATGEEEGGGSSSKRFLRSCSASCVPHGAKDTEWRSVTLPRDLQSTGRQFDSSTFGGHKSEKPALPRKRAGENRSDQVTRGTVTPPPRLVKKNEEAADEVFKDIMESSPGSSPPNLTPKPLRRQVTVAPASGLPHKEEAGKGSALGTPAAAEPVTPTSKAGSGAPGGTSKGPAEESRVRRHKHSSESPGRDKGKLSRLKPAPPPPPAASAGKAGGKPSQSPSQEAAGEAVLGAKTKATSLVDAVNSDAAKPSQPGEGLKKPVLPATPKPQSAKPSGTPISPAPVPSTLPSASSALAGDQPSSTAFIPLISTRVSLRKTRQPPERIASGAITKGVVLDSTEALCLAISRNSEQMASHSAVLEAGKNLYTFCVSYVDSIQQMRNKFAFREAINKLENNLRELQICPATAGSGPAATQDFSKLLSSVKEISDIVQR
Chain of Ras and Rab interactor 1/Tyrosine-protein kinase ABL1 (Q13671 whole entry): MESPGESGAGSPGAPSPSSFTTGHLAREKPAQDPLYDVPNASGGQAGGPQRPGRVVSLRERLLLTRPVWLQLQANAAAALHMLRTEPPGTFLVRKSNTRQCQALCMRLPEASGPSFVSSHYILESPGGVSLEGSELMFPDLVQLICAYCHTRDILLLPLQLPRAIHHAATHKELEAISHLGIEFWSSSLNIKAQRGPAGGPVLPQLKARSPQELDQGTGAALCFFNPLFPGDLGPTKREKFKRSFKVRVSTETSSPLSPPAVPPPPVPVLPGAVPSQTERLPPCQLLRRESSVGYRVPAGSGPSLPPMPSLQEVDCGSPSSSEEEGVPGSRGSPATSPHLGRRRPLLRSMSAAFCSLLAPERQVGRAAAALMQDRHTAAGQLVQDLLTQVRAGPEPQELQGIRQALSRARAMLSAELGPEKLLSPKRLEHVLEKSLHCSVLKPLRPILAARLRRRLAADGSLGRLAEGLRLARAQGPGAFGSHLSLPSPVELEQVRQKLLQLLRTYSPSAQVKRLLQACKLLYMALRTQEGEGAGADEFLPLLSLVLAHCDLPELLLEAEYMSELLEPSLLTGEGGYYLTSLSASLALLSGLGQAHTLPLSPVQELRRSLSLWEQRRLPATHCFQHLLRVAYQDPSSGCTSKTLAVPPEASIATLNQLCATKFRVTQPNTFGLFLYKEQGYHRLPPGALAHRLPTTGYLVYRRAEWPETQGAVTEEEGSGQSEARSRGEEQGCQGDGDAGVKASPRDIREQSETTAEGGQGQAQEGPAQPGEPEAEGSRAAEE

[8] = tested on: Streptococcus sp. 'group A'; experiment: Streptococcus pyogenes SK(-)GAS viability under kanamycin – luminescence, BacTiterGlo, confirmation, counter-screen for streptokinase expression inhibitor project, dose response (AID 1900); assay type: functional, organism-based
Beta-galactosidase = Beta-galactosidase (Escherichia coli, UniProt Q8VNN2); experiment: detection-enzyme interference by beta-gal modulators – biochemical, E. coli enzyme, set 3, artefact control for CCR6 antagonist project, dose response (AID 504712); assay type: functional
Chain of Beta-galactosidase (Q8VNN2 whole entry): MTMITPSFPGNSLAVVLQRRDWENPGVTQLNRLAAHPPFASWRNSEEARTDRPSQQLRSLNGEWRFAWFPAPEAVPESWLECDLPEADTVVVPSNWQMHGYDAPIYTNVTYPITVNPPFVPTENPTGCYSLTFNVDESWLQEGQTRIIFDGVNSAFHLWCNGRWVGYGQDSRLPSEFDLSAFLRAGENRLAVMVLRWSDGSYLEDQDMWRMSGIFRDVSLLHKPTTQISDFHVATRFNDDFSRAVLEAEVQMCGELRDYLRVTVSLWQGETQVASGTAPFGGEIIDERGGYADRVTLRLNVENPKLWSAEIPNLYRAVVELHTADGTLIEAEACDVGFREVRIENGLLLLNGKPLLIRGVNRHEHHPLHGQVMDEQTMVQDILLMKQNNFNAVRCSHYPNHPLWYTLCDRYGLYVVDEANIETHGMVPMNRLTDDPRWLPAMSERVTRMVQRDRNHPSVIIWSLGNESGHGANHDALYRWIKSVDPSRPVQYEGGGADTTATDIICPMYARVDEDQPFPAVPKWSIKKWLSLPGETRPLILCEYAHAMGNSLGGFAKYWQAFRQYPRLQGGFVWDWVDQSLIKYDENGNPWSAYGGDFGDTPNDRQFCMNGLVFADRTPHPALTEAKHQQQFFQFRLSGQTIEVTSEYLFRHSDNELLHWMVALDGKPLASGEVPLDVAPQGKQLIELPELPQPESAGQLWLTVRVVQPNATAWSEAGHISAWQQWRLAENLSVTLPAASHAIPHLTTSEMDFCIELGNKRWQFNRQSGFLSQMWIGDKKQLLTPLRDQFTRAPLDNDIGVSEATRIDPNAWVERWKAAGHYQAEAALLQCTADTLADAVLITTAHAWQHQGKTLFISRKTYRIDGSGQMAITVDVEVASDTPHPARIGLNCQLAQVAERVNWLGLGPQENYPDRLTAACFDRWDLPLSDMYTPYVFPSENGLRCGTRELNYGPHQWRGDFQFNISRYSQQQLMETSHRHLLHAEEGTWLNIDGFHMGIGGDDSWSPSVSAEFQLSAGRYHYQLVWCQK

Streptococcus = experiment: GAS UMAA2166 growth inhibition – luminescence, BacTiterGlo, counter-screen for streptokinase expression inhibitor project, dose response (AID 1915); assay type: functional, organism-based;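 further: potency for reduction of bacterial viability or growth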
[9] = biological target: T3, Short transient receptor potential channel 4 (Mus musculus, UniProt Q9QUQ5); experiment: calcium entry via TRPC4 opening agents – cell-based, HEK293 TRPC4/mu-opioid, Fluo-4 calcium, dose response (AID 434937); assay type: functional
T3 sequence (Q9QUQ5 whole entry): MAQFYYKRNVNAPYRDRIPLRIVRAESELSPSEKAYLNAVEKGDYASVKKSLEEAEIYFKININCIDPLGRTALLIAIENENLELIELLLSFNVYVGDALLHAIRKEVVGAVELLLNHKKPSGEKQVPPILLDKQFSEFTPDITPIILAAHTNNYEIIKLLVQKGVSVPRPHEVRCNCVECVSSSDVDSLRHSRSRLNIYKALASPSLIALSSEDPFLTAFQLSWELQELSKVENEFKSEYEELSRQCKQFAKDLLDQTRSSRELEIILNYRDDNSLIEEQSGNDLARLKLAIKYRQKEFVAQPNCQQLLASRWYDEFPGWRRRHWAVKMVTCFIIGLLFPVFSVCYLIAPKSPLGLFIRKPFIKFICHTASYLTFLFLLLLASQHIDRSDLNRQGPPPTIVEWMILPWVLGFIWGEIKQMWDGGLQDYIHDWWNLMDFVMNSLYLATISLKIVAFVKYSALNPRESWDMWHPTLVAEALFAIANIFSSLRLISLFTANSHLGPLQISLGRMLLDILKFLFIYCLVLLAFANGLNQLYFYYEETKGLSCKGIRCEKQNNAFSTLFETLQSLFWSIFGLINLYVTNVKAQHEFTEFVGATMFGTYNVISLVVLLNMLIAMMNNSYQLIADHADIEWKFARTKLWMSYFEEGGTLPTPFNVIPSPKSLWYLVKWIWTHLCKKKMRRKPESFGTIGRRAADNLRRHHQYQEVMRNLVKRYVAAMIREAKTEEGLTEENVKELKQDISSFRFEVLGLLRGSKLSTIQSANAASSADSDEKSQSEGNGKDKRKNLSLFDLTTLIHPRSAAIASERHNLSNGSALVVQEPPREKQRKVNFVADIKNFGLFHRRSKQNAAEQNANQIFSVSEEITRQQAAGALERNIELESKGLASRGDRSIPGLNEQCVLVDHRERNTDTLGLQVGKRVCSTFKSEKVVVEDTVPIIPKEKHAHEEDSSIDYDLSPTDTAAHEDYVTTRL

[10] = biological target: Disintegrin and metalloproteinase domain-containing protein 17 (Homo sapiens, UniProt P78536); experiment: exosite inhibitors of ADAM17, dose response, biochemical (AID 743260)
Chain of Disintegrin and metalloproteinase domain-containing protein 17 (P78536 whole entry, the tested form may be a part): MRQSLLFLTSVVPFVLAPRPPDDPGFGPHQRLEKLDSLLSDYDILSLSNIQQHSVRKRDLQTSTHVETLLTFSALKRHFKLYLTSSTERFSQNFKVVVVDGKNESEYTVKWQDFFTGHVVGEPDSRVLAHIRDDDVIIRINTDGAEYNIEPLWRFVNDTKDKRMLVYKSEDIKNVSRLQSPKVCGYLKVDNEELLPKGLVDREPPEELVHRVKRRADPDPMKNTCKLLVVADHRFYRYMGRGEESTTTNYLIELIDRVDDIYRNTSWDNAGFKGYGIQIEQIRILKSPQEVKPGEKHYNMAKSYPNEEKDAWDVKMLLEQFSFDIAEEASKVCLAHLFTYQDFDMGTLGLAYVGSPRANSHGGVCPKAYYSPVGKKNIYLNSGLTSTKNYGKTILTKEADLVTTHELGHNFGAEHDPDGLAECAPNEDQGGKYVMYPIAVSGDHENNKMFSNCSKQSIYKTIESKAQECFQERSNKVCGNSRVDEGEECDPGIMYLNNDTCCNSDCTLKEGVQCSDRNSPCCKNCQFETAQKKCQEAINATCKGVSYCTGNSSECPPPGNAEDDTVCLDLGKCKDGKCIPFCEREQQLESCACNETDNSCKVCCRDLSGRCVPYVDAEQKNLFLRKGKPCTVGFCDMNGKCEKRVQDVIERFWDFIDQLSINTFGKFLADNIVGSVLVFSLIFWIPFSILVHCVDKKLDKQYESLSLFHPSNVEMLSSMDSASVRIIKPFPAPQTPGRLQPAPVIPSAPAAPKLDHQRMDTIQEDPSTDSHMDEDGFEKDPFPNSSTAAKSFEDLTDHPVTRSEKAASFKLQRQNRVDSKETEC

[11] = inhibition of ADAM10 peptide cleavage – biochemical, FRET peptide substrate, recombinant human ADAM10, selectivity assay for ADAM17 exosite inhibitor project, dose response (AID 743259);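 further: ADAM10 enzyme cleaving a FRET peptide substrate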
Beta Lactamase = Beta Lactamase (Pseudomonas aeruginosa, UniProt Q932Y6); experiment: BLA reporter interference, concentration series – BLA reporter cells, FRET fluorescence, artefact control for TLR9-MyD88 binding inhibitor project, dose response (AID 588341); assay type: cell-based;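 further: cell based assay in CHO-K1 cells stably expressing beta-lactamase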
Chain of Beta Lactamase (Q932Y6 whole entry, the tested form may be a part): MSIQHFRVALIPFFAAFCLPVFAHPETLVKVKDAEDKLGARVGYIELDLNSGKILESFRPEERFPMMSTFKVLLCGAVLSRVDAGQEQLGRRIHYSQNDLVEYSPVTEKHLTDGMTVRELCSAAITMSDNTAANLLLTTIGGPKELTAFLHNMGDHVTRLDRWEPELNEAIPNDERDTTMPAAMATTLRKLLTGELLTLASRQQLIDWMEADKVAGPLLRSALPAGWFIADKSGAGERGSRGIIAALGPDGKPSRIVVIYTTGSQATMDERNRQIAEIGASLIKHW

CHO = CHO cell viability loss, potency – luminescence, cytotoxicity control for TLR9-MyD88 binding inhibitor project, dose response (AID 588339); assay type: functional, cell-based, hamster; conditions: Cricetulus griseus;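 further: CHO cells stably coexpressing TLR9 and MyD88 fusions from primary screen; compound exposure lasted 48 hours before viability readout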
Galanin receptor type 3 = biological target: T4, Galanin receptor type 3 (Homo sapiens, UniProt O60755); experiment: Fluorescence-based cell-based primary high throughput dose response assay to identify antagonists of the Galanin Receptor 3 (GalR3).; assay type: functional
T4 sequence (O60755 whole entry): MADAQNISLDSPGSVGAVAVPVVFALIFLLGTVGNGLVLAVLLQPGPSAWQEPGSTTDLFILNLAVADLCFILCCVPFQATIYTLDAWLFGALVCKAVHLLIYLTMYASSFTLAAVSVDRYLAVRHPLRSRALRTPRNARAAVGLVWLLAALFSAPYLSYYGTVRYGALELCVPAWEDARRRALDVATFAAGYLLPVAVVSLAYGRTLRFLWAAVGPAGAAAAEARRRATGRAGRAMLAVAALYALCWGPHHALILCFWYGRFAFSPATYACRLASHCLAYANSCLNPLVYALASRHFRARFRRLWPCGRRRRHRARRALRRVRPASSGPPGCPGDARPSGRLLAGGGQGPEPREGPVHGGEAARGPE

cells [12] = assay type: functional, cell-based; conditions: HEK-CNG
[13] = Trypanosoma cruzi growth suppression in host cells – NIH3T3 host cells, beta-gal luminescence, confirmation (AID 2044); assay type: functional, cell-based;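 further: intracellular parasites grown in NIH/3T3 mouse fibroblasts as host cells; luminescent beta-galactosidase reporter signal from transgenic T. cruzi replicating inside host cells; inhibitors lower the luminescence signal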
[14] = NIH3T3 cell viability loss – ATP luminescence, mouse fibroblasts, counter-screen, dose response (AID 2010); assay type: functional, cell-based;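 further: cells exposed to compound for about 90 hours before reading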

## c1nnc(NCNc2nncs2)s1
Cytochrome P450 1A2
  AC50: 2 µM (inconclusive)
Vero [1]
  IC50: > 25 µM (active)
[2]
  EC50: > 53 µM (inactive)
Vero [3]
  CC50: > 25 µM (active)

## Cc1cc(NC(=O)COC(=O)c2c(Cl)cccc2Cl)no1
Vero [1]
  IC50: > 25 µM (active)
Cells [4]
  IC50: 21.8 µM (active)
[5]
  CC50: > 50 µM (active)

## Cc1ccc2nc(NC(=O)CSCC(=O)OCC(=O)c3ccc(Br)cc3)sc2c1
[6]
  IC50: > 80 µM (inactive)
Prothrombin
  IC50: 0.0393 µM (active)

## COc1ccc(CC(=O)Oc2ccc(C)cc2Br)cc1OC
[7]
  IC50: 6.87 µM (active)

## Cc1ccc(C(=O)NNC(=S)NC(=O)c2ccccc2)cc1
[8]
  EC50: 1.47 µM (active)
Vero [1]
  IC50: 12 µM (active)
Beta-galactosidase
  IC50: > 66.6 µM (inactive)
Streptococcus
  EC50: 4.44 µM (active)
Vero [3]
  CC50: 24.8 µM (active)
[9]
  EC50: 2.66 µM (active)

## CC12CCC(=O)N1C(C(=O)N1CCN(S(=O)(=O)c3ccc(Br)cc3Cl)CC1)CS2 (stereo not drawn)
[7]
  IC50: 17 µM (inactive)

## O=C(OCc1cnc(Cl)s1)c1cccc(Cl)c1Cl
[10]
  IC50: > 69.6 µM (inactive)
[11]
  IC50: > 69.6 µM (inactive)

## Cn1c(-c2c(N)n(-c3ccccc3)c3nc4ccccc4nc23)nc2ccccc21
Beta Lactamase
  IC50: 3.85 µM (active)
CHO
  IC50: > 49.7 µM (inactive)

## COc1cc(/C=C(\C#N)c2ccccn2)ccc1OCc1ccccc1
[10]
  IC50: > 69.5 µM (inactive)
[11]
  IC50: > 69.5 µM (inactive)

## CC1(C)CC2CC(C)(CN2S(=O)(=O)c2ccc(C(=O)Nc3ccc(S(=O)(=O)N4CCOCC4)cc3)cc2)C1 (stereo not drawn)
Galanin receptor type 3
  IC50: 0.96 µM (active)
Cells [12]
  EC50: > 29.9 µM (inactive)
[6]
  IC50: > 80 µM (inactive)
[13]
  EC50: 1.83 µM (active)
[14]
  EC50: > 60 µM (not active)

Source: ChEMBL document CHEMBL1201862, “PubChem BioAssay data set” (2004)
